Experimental data published in ChEMBL document CHEMBL1129701, “-Vinyllysine and -vinylarginine are time-dependent inhibitors of their cognate decarboxylases” (Bioorg Med Chem Lett, 1996).

Assays:
Escherichia coli [1] = assay: Rate of inactivation against L-arginine decarboxylase (ADC) from Escherichia coli was determined in UV time dependent assay.
Escherichia coli [2] = assay: Compound was evaluated for inhibition of L-arginine decarboxylase (ADC) from Escherichia coli in UV time dependent assay.
[3] = Compound was evaluated for binding affinity towards L-arginine decarboxylase (ADC) from Escherichia coli in UV time dependent assay.
[4] = Half life was reported; assay type: ADME
[5] = Compound was evaluated for binding affinity against L-lysine decarboxylase (LDC) from Bacterium cadaveris in UV time dependent assay.
bacterium cadaveris [6] = assay: Rate of inactivation against L-lysine decarboxylase (LDC) from Bacterium cadaveris was determined in UV time dependent assay.
bacterium cadaveris [7] = assay: Compound was evaluated for inhibition L-lysine decarboxylase (LDC) from Bacterium cadaveris in UV time dependent assay.

C=C[C@](N)(CCCNC(=N)N)C(=O)O (racemic)
K inact (Escherichia coli [1]): 0.036 min⁻¹ | Km (Escherichia coli [2]): 180 µM | Ki [3]: 1800 µM | half-life [4]: 19 min

C=C[C@](N)(CCCCN)C(=O)O (racemic)
Ki [5]: 500 µM | K inact (bacterium cadaveris [6]): 0.02 min⁻¹ | Km (bacterium cadaveris [7]): 640 µM | half-life [4]: 35 min
